From a compilation of properties of binary mixtures (doi:10.1021/acs.jced.3c00247)

Experiment: xn = mol fraction of the nth substance listed
Settings: 100 kPa

O + C[C@H](N)C(=O)[O-].C[N+](C)(C)CCO
x2 = 0
Settings | viscosity [mPa·s]
288.09 K | 1.08
289.33 K | 1.05
290.56 K | 1.02
291.75 K | 0.98
292.93 K | 0.96
294.1 K | 0.93
295.28 K | 0.9
297.64 K | 0.86
298.81 K | 0.84
301.17 K | 0.8
302.34 K | 0.78
303.52 K | 0.77
304.69 K | 0.75
305.87 K | 0.74
308.22 K | 0.71

C[C@H](N)C(=O)[O-].C[N+](C)(C)CCO + O
Settings | viscosity [mPa·s]
287.92 K, x1 = 0.097 | 10.7
287.94 K, x1 = 0.198 | 60
288 K, x1 = 0.3748 | 345
288 K, x1 = 0.4948 | 710
288.02 K, x1 = 0.5975 | 1059
288.02 K, x1 = 0.8993 | 3070
288.06 K, x1 = 0.7994 | 2139
288.08 K, x1 = 0.692 | 1634
289.2 K, x1 = 0.198 | 57
289.22 K, x1 = 0.097 | 10.2
289.22 K, x1 = 0.3748 | 328
289.23 K, x1 = 0.2939 | 166
289.24 K, x1 = 0.4948 | 660
289.26 K, x1 = 0.8993 | 2817
289.29 K, x1 = 0.7994 | 1961
290.21 K, x1 = 1 | 4300
290.48 K, x1 = 0.198 | 53
290.48 K, x1 = 0.3748 | 300
290.5 K, x1 = 0.097 | 9.6
290.5 K, x1 = 0.4948 | 600
290.5 K, x1 = 0.5975 | 880
290.52 K, x1 = 0.8993 | 2510
290.54 K, x1 = 0.692 | 1293
291.71 K, x1 = 0.2939 | 140
291.71 K, x1 = 0.3748 | 274
291.72 K, x1 = 0.097 | 9.2
291.72 K, x1 = 0.198 | 50
291.72 K, x1 = 0.4948 | 540
291.72 K, x1 = 0.5975 | 790
291.73 K, x1 = 0.7994 | 1562
291.73 K, x1 = 0.8993 | 2231
291.74 K, x1 = 0.692 | 1150
292.02 K, x1 = 1 | 3052
292.32 K, x1 = 1 | 3520
292.91 K, x1 = 0.198 | 46
292.91 K, x1 = 0.2939 | 129
292.91 K, x1 = 0.3748 | 250
292.92 K, x1 = 0.7994 | 1393
292.92 K, x1 = 0.8993 | 1984
294.08 K, x1 = 1 | 2544
294.1 K, x1 = 0.198 | 43
294.1 K, x1 = 0.2939 | 119
294.1 K, x1 = 0.3748 | 230
294.1 K, x1 = 0.5975 | 650
294.1 K, x1 = 0.8993 | 1775
294.41 K, x1 = 1 | 2896
295.27 K, x1 = 0.097 | 8
295.27 K, x1 = 0.198 | 40.8
295.27 K, x1 = 0.2939 | 111
295.27 K, x1 = 0.3748 | 212
295.27 K, x1 = 0.4948 | 410
295.27 K, x1 = 0.5975 | 590
295.27 K, x1 = 0.692 | 840
295.27 K, x1 = 0.8993 | 1599
296.14 K, x1 = 1 | 2140
296.45 K, x1 = 0.097 | 7.7
296.45 K, x1 = 0.198 | 38.3
296.45 K, x1 = 0.2939 | 103
296.45 K, x1 = 0.3748 | 195
296.45 K, x1 = 0.5975 | 540
296.45 K, x1 = 0.692 | 760
296.45 K, x1 = 0.8993 | 1438
296.48 K, x1 = 1 | 2402
297.63 K, x1 = 0.198 | 36.2
297.63 K, x1 = 0.2939 | 96
297.63 K, x1 = 0.3748 | 181
297.63 K, x1 = 0.4948 | 347
297.63 K, x1 = 0.5975 | 490
297.63 K, x1 = 0.692 | 700
297.63 K, x1 = 0.7994 | 920
297.63 K, x1 = 0.8993 | 1302
298.2 K, x1 = 1 | 1806
298.54 K, x1 = 1 | 2000
298.8 K, x1 = 0.5975 | 450
298.8 K, x1 = 0.8993 | 1183
298.81 K, x1 = 0.097 | 7.1
298.81 K, x1 = 0.198 | 34.3
298.81 K, x1 = 0.3748 | 168
298.81 K, x1 = 0.4948 | 320
298.81 K, x1 = 0.692 | 630
299.98 K, x1 = 0.198 | 32.3
299.98 K, x1 = 0.2939 | 84
299.98 K, x1 = 0.4948 | 294
299.98 K, x1 = 0.5975 | 410
299.98 K, x1 = 0.692 | 580
299.98 K, x1 = 0.7994 | 760
299.98 K, x1 = 0.8993 | 1071
300.61 K, x1 = 1 | 1681
301.16 K, x1 = 0.097 | 6.6
301.16 K, x1 = 0.198 | 30.6
301.16 K, x1 = 0.2939 | 79
301.16 K, x1 = 0.3748 | 145
301.16 K, x1 = 0.4948 | 271
301.16 K, x1 = 0.5975 | 379
301.16 K, x1 = 0.7994 | 690
301.16 K, x1 = 0.8993 | 970
302.33 K, x1 = 0.198 | 29
302.33 K, x1 = 0.2939 | 74
302.33 K, x1 = 0.4948 | 251
302.33 K, x1 = 0.5975 | 348
302.33 K, x1 = 0.692 | 480
302.33 K, x1 = 0.7994 | 630
302.33 K, x1 = 0.8993 | 890
302.34 K, x1 = 0.097 | 6.4
302.34 K, x1 = 1 | 1310
302.66 K, x1 = 1 | 1421
303.51 K, x1 = 0.097 | 6.2
303.51 K, x1 = 0.198 | 27.6
303.51 K, x1 = 0.2939 | 69
303.51 K, x1 = 0.4948 | 233
303.51 K, x1 = 0.5975 | 322
303.51 K, x1 = 0.692 | 440
303.51 K, x1 = 0.8993 | 810
304.41 K, x1 = 1 | 1119
304.69 K, x1 = 0.097 | 6
304.69 K, x1 = 0.198 | 26.2
304.69 K, x1 = 0.2939 | 65
304.69 K, x1 = 0.3748 | 117
304.69 K, x1 = 0.4948 | 216
304.69 K, x1 = 0.5975 | 297
304.69 K, x1 = 0.692 | 410
304.69 K, x1 = 0.7994 | 530
304.69 K, x1 = 0.8993 | 740
305.86 K, x1 = 0.198 | 24.9
305.86 K, x1 = 0.2939 | 61
305.86 K, x1 = 0.5975 | 274
305.86 K, x1 = 0.692 | 375
305.86 K, x1 = 0.7994 | 480
305.87 K, x1 = 0.097 | 5.7
306.48 K, x1 = 1 | 960
306.78 K, x1 = 1 | 1030
307.04 K, x1 = 0.097 | 5.6
307.04 K, x1 = 0.198 | 23.7
307.04 K, x1 = 0.2939 | 58
307.04 K, x1 = 0.4948 | 186
307.04 K, x1 = 0.692 | 347
307.04 K, x1 = 0.7994 | 440
308.21 K, x1 = 0.4948 | 173
308.21 K, x1 = 0.5975 | 236
308.21 K, x1 = 0.692 | 321
308.22 K, x1 = 0.097 | 5.4
308.22 K, x1 = 0.198 | 22.6
308.22 K, x1 = 0.2939 | 54
308.22 K, x1 = 0.3748 | 96
308.22 K, x1 = 0.7994 | 410
308.22 K, x1 = 0.8993 | 570
308.54 K, x1 = 1 | 830
308.84 K, x1 = 1 | 880
310.61 K, x1 = 1 | 720
310.9 K, x1 = 1 | 760
312.67 K, x1 = 1 | 630
312.95 K, x1 = 1 | 660
314.74 K, x1 = 1 | 550
315.01 K, x1 = 1 | 570
316.82 K, x1 = 1 | 480
317.07 K, x1 = 1 | 500
318.91 K, x1 = 1 | 420
319.13 K, x1 = 1 | 440
321.04 K, x1 = 1 | 374
321.19 K, x1 = 1 | 387
323.25 K, x1 = 1 | 342
